Article PMC3362725, “An open-label, phase 1 study evaluating safety, tolerability, and pharmacokinetics of linifanib (ABT-869) in Japanese patients with solid tumors” (Cancer Chemotherapy and Pharmacology, 2012)

System: PlGF
Assay: Plasma PlGF biomarker (Abbott Architect kits)
Format: in vivo, human (Japanese patients with solid tumors)
Protocol: Plasma for biomarker analysis was collected before linifanib administration on C1D1, C1D15, C2D1, and at the final visit. Concentration of PlGF was determined using Abbott Architect® kits. The relationship of PlGF levels to outcomes was assessed post hoc. To assess the relationship between PlGF induction and toxicity, patients were grouped into those requiring and not requiring dose interruption during the first 30 days of therapy. Median PlGF increase from baseline to C1D15 was compared as a function of toxicity group. To assess the relationship between PlGF induction and efficacy, patients were segregated into those with progressive disease (PD; N = 6) or stable disease (SD; N = 10) at C6, and PlGF increase from baseline to C1D15 was compared.

## Cc1ccc(F)c(NC(=O)Nc2ccc(-c3cccc4[nH]nc(N)c34)cc2)c1 [linifanib, N-(4-(3-amino-1H-indazol-4-yl)phenyl)-N’-(2-fluoro-5-methylphenyl)urea]
0.05–0.25 mg/kg once daily
  induction of PlGF on C1D15 and C2D1: dose-dependent
11 patients with dose interruption in first 30 days
  median (±SD) increase in PlGF from baseline to C1D15: 79.9 (±55.0) pg/mL
PD (n = 6) versus SD (n = 10) at C6, p = 0.7
  PlGF change from baseline to C1D15 as a function of response classification: No statistically significant difference
Five patients without dose interruption in first 30 days, ±16.2
  median (±SD) increase in PlGF from baseline to C1D15: 22.8 pg/mL
Patients no longer on therapy
  PlGF concentration at the final visit: returned to near baseline levels
